From patent US20220119868A1, “PROFILING RNA-SMALL MOLECULE BINDING SITES WITH OLIGONUCLEOTIDES” (priority 2018, published 2022)
Several values for one entry are separate records, joined by “and”; a condition that tells them apart may be missing. Equal values may be shown once.

Columns and labels:
Fully paired RNA = assay: In solution, fluorescence-based binding affinity assay
Experimental: (§1) Affinity of Selected RNA Motif-Small Molecule Interactions. The affinity of exemplar compounds that have inherent fluorescence was measured. […] . Binding affinities were confirmed using a label-free method, biolayer interferometry.
(§2) where n1 is the size of Population 1 (number of sequencing reads for a given RNA from RNA-seq analysis of the selected library), n2 is the size of Population 2 (number of sequencing reads for the same RNA from RNA-seq analysis of the starting library), p1 is the observed proportion of Population 1 (the number of reads for a given RNA from selected library/total number of reads), and p2 is the observed proportion for Population 2 (the number of reads for the same RNA in the starting library/total number of reads). Generation of Logos and DiffLogos: Zobs corresponding to the highest (enriched) 0.5% and lowest (discriminated against) 0.5% scores were analyzed to generate consensus sequences, or Logos. The resulting list of sequences were converted to position weight matrix (PWM) lists for each compound. “Enriched” and “discriminated” sequences were kept separate using JMP®, Version <13.2.1>. SAS Institute Inc., Cary, N.C., 1989-2007. The R package Difflogo,^16 which is part of Bioconductor, was utilized to create the sequence logos from PWM lists for each compound and visually compare the differences between them. Binding Affinity Measurements. Dissociation constants were determined using an in solution, fluorescence-based assay. […] Serial dilutions (1:2) of the small molecule were then completed in 1× Assay Buffer supplemented with 1 mM MgCl2. The solutions were incubated for 30 min at room temperature, transferred to a 96-well plate, and fluorescence intensity measured on a BioTek-FLx800 plate reader. The change in fluorescence intensity as a function of small molecule concentration was fit to a one site binding model per equation 3: […]
(§3) Effect of compounds on HCV replication. […] Cytotoxicity assays. […] Oligonucleotide profiling of target engagement in vitro. […] Primers can be found in Table 4. […] Inhibition of kinases. […] . Figure S7C).

[1] = molecular target: RNA motif 5′UUA3′/3′A_U5′ (from RNA library C); assay: as above
Experimental: as §1, §2, §3

[2] = system: HCV replication, SGR-Neo-RLuc-JFH1-2A replicon cells established in Huh-7.5; assay: HCV replication in subgenomic replicon cells (Renilla luciferase); assay type: cell-based, Hepatitis C virus; details: for IC50: Hepatitis C virus, Huh7.5, read-out: IC50, inhibition of HCV replication
Description: The compounds bind their cognate loops in the 3′ UTR with mid-nanomolar to low micromolar affinities (Table 1). It was next determined if the identified compounds could inhibit HCV RNA replication in HCV subgenomic replicon cells, in particular SGR-Neo-RLuc-JFH1-2A replicon cells established in Huh-7.5 (human hepatoma cells). In this system, an autonomously replicating viral RNA replicon is used to monitor efficiently RNA replication of the virus in the absence of spread of viral RNA to adjacent cells. This is achieved by replacing the structural proteins required to assembly progeny virions with a drug selectable marker (Neo) and a Renilla luciferase (RLuc) reporter gene. Once this replicon has been delivered to human hepatoma cells and selection with G418 (conferred by Neo selectable marker) has occurred, the expression and Renilla luciferase activity is directly correlated with the level of HCV replication^57.
They were therefore assayed for their ability to inhibit HCV replication using this replicon system, with DMSO vehicle and 2′-C-methyladenosine^17 triphosphate serving as negative and positive controls, respectively.
as §3

panel of 22 kinases = assay: In vitro inhibition of a panel of kinases; assay type: biochemical; details: 20 μM; for kinases inhibited in the panel: panel of 22 kinases
CAMK4 = CAMK4 (Homo sapiens, UniProt Q16566); assay: In vitro inhibition of a panel of kinases; assay type: biochemical; details: 20 μM
Chain of CAMK4 (Q16566 whole entry): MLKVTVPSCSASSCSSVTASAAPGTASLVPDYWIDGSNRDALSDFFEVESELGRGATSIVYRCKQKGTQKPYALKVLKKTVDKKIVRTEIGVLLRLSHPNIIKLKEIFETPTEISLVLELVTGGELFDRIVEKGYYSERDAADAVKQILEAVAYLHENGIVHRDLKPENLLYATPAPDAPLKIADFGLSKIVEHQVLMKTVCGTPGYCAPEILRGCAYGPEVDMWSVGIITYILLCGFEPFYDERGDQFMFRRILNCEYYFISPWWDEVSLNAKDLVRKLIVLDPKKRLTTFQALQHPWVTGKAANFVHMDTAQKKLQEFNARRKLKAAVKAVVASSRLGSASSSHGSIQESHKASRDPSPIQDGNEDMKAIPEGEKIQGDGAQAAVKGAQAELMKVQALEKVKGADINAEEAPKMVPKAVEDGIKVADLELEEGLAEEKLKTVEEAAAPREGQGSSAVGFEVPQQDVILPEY
Description: as §3

| SMILES | Kd (Fully paired RNA) [µM] | Kd [1] | IC50 [2] [µM] | kinases inhibited in the panel (panel of 22 kinases) | average percent inhibition of the seven affected kinases (panel of 22 kinases) [%] | inhibition of CAMK4 in vitro (CAMK4) | effect on viral replication together with ASO ([2]; with ASO Control binding 750 nucleotides downstream) | effect on viral replication together with ASO ([2]; with ASO complementary to SL I, luciferase) |
| --- | --- | --- | --- | --- | --- | --- | --- | --- |
| O=C(Nc1cccc(NC(=O)Nc2cc(C(=O)Nc3ccc(C4=NCCN4)cc3)ccc2C(=O)Nc2ccc(C3=NCCN3)cc2)c1)Nc1cc(C(=O)Nc2ccc(C3=NCCN3)cc2)ccc1C(=O)Nc1ccc(C2=NCCN2)cc1 [Compound 7] | > 7 | 0.38 ± 0.026 µM | 17 ± 0.5 | affected seven kinases modestly | 16±3 | most significantly inhibited |  |  |
| O=C(Nc1ccc(C2=NCCN2)cc1)c1cc(C(=O)Nc2ccc(C3=NCCN3)cc2)cc(C(=O)Nc2ccc(C3=NCCN3)cc2)c1 [Compound 8] | > 5 | 0.69 µM and 0.53 µM | 14 ± 1 | affected seven kinases modestly | 14±3 | most significantly inhibited | less robust | synergistic effect |
